Measured values taken from US6551999B1, “Angiogenesis inhibitor” (Senju Pharmaceutical Co., Ltd., priority 1995, dated 2003).
pIC50: −log10 of the molar value.

Key:
Type in all cases: biochemical
μ-calpain = biological target: T1, μ-calpain (Homo sapiens, UniProt P07384); experiment: μ-Calpain-inhibitory activity (casein substrate); settings: 60 minutes at 30° C., pH 7.4, 4 mM calcium chloride
T1 construct: purchased Nakalai Tesque
T1 sequence (P07384 1-714): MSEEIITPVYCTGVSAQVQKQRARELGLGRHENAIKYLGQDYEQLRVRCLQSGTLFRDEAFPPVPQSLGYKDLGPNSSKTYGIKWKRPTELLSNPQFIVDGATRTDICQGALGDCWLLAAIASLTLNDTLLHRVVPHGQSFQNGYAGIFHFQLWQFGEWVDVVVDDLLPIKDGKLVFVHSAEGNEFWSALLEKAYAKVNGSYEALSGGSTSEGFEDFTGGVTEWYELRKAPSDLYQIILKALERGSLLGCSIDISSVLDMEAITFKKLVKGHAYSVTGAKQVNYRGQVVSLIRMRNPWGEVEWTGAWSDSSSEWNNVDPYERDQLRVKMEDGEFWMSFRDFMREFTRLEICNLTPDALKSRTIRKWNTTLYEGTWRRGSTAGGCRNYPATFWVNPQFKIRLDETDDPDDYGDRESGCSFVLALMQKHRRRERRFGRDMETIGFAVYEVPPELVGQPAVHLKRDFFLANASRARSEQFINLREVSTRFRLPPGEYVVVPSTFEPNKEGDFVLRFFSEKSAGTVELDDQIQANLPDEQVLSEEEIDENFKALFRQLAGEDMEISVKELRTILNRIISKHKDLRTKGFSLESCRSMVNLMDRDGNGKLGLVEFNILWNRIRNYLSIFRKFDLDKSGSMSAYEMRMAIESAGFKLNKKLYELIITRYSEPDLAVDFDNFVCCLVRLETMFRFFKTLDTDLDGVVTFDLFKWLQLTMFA
T1 sequence (P04632 1-268 partner): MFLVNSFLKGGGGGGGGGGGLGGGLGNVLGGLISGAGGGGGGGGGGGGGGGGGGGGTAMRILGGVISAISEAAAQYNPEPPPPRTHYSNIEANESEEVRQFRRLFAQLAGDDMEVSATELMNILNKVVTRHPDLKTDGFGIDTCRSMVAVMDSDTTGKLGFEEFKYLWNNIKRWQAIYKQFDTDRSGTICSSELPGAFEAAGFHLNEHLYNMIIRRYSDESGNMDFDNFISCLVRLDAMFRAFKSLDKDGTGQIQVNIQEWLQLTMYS
Description: Thus, to a solution containing 0.5 mg/ml casein, 50 mM Tris-HCl (pH 7.4), 20 mM dithiothreitol, and 4 mM calcium chloride was added 2.5 μl of a dimethyl sulfoxide solution containing a varying concentration of the test drug as well as 0.03 unit of μcalpain to initiate the reaction. The final liquid volume was 250 μl. After 60 minutes of reaction at 30° C., 100 μl of the reaction mixture was transferred to another vessel, to which 50 μl of purified water and 100 μl of 50% Coumassie brilliant blue solution were added. […] As a control, 2.5 μl of dimethyl sulfoxide not containing the test drug was added and the mixture was treated in the same manner as above. […] Similarly, the value found by adding 0.2 mM EDTA in lieu of 4 mM aqueous calcium chloride solution was used as the blank value. […] [formula]

cathepsin L = biological target: T2, cathepsin L (Homo sapiens, UniProt P07711); experiment: Assay of cathepsin L-inhibitory activity (Z-Phe-Arg-MCA); settings: 20 minutes at 30° C., pH 5.5
T2 construct: purchased Cosmo Bio
Description: The activity of cathepsin L (Cosmo Bio), a cysteine protease, was assayed by the method described in the literature [Methods in Enzymology, 80, 535-561, 1981]. Thus, to a solution containing 85 mM acetate buffer (pH 5.5), 2 mM dithiothreitol, 1 mM EDTA, 2 μg cathepsin L, and a varying concentration of the test compound was added 50 μl of 20 μM carbobenzoxy-L-phenylalanyl-L-arginine-4-methylcoumaryl-7-amide (Z-Phe-Arg-MCA) to initiate the reaction at the final liquid volume of 200 μl. After 20 minutes of reaction at 30° C., 20 μl of 1 M Tris-HCl (pH 8.0) was added so as to stop the reaction. The amount of liberated 4-methyl-7-aminocoumarin was determined with a fluorospectrometer at an excitation wavelength of 360 nm and a fluorescent emission wave length of 450 nm. Using the value found without addition of the test drug as control and the value found without addition of the enzyme as blank, IC50 was determined in the same manner as above.

papain = biological target: T3, papain (Carica papaya, UniProt P00784); experiment: Assay of papain-inhibitory activity (casein substrate); settings: 60 minutes at 30° C., pH 8.0
T3 sequence (P00784 134-345): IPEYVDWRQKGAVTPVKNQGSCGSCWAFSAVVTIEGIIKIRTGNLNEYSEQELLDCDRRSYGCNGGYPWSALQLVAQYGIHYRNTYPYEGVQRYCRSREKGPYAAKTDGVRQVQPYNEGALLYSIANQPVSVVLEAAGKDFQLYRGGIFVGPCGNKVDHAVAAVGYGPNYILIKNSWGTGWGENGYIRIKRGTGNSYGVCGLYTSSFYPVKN
Description: (§1) The activity of papain which is a cysteine protease and of trypsin (Sigma) which is a serine protease was assayed in accordance with the method described in the literature [Anal. Biochem., 208, 387-392, 1993]. Thus, to a solution containing 0.5 mg/ml casein, 50 mM Tris-HCl (pH 8.0), 20 mM dithiothreitol, and 0.2 mM EDTA was added 2.5 μl of dimethyl sulfoxide containing a varying concentration of the test drug as well as 0.03 unit of papain or trypsin to initiate the reaction. The final liquid volume was adjusted to 250 μl. After 60 minutes of reaction at 30° C., 100 μl of the reaction mixture was transferred to another vessel and following addition of 50 μl of purified water and 100 μl of 50% Coumassie brilliant blue solution, the mixture was allowed to stand at room temperature for 15 minutes. The absorbance of the mixture was then measured at 595 nm. Using the value found similarly by adding 2.5 μl of dimethyl sulfoxide not containing the test drug as control and the value found without addition of the enzyme as blank, IC50 was determined in the same manner as above.

trypsin = biological target: T4, trypsin (UniProt P00760); experiment: Assay of trypsin-inhibitory activity (casein substrate); settings: read-out: Trypsin 50% Inhibitory concentration (IC50); 60 minutes at 30° C., pH 8.0
T4 sequence (P00760 1-246): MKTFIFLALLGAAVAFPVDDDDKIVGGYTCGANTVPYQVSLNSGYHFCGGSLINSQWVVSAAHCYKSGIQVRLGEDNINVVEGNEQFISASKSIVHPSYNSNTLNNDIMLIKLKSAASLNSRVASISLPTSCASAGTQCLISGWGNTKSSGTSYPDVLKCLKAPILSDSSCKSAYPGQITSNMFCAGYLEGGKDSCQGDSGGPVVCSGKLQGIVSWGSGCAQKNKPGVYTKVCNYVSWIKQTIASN
Description: as §1

T2 sequence (P07711 114-333, species assumed): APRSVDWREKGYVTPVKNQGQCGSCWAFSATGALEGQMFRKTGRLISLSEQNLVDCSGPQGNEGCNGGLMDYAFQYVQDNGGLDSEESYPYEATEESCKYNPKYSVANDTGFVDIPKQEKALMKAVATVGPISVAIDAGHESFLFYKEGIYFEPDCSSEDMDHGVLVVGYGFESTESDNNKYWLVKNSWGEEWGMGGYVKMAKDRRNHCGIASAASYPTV

`O=C(O)[C@H]1O[C@@H]1C(=O)NCC(=O)N1CCN(c2ccccc2Cl)CC1` [Compound 22, (2s,3s)-3-[[[[[4-(2-chlorophenyl)-1-piperazinyl]carbonyl]methyl]amino]carbonyl]oxiranecarboxylic acid] gave a pIC50 (μ-calpain) of 4.74, a pIC50 (cathepsin L) of 4.42 and a pIC50 (papain) of 5.40. It also gave a pIC50 (trypsin) of less than 2.52.

`CC(C)C[C@H](NC(=O)[C@H]1O[C@@H]1C(=O)O)C(=O)N1CCN(c2ccccc2Cl)CC1` [Compound 17, (2s,3s)-3-[[[[(1s)-1-[[4-(2-chlorophenyl)-1-piperazinyl]carbonyl]-3-methyl]butyl]amino]carbonyl]oxiranecarboxylic acid] was tested, and the pIC50 (μ-calpain) was 6.46, the pIC50 (cathepsin L) was 7.57 and the pIC50 (papain) was 7.21. The pIC50 (trypsin) was less than 2.52.
